Data from ChEMBL document CHEMBL5705893, “Targeting the mitotic checkpoint for cancer therapy with NMS-P715, an inhibitor of MPS1 kinase” (Cancer Res, 2010).
pIC50: −log10 of the molar value. The source made the active and inactive calls. The rule behind the calls is not given here.

Experiments:
[1] = biological target: Glycogen synthase kinase-3 beta (Homo sapiens, UniProt P49841); test: Inhibition of recombinant GSK3beta (unknown origin)
[2] = system: MIA PaCa-2; test: Antiproliferative activity against human MIA PaCa-2 cells assessed as inhibition of cell growth incubated for 72 hrs by celltiter-glo assay; type: functional, cell-based; settings: MIA PaCa-2, 72 h
[3] = system: SW-620; test: Antiproliferative activity against human SW620 cells assessed as inhibition of cell growth incubated for 72 hrs by celltiter-glo assay; type: functional, cell-based; settings: SW-620, 72 h
[4] = system: SF-268; test: Antiproliferative activity against human SF-268 cells assessed as inhibition of cell growth incubated for 72 hrs by celltiter-glo assay; type: functional, cell-based; settings: SF-268, 72 h
[5] = AUC in Athymic nu-nu mouse at 100 mg/kg, po measured upto 24 hrs by LC-MS/MS analysis; type: ADME, organism-based; settings: in vivo
[6] = system: NCI-H2126; test: Antiproliferative activity against human NCI-H2126 cells assessed as inhibition of cell growth incubated for 72 hrs by celltiter-glo assay; type: functional, cell-based; settings: NCI-H2126, 72 h
[7] = Inhibition of recombinant SULU1 (unknown origin); parameters: species or system Homo sapiens
[8] = biological target: MAP kinase-activated protein kinase 2 (Homo sapiens, UniProt P49137); test: Inhibition of recombinant MAPKAPK2 (unknown origin)
[9] = system: KARPAS-299; test: Antiproliferative activity against human KARPAS-299 cells assessed as inhibition of cell growth incubated for 72 hrs by celltiter-glo assay; type: functional, cell-based; settings: KARPAS-299, 72 h
[10] = system: SF-295; test: Antiproliferative activity against human SF-295 cells assessed as inhibition of cell growth incubated for 72 hrs by celltiter-glo assay; type: functional, cell-based; settings: SF-295, 72 h
[11] = system: RO82-W-1; test: Antiproliferative activity against human RO82-W-1 cells assessed as inhibition of cell growth incubated for 72 hrs by celltiter-glo assay; type: functional, cell-based; settings: RO82-W-1, 72 h
[12] = Cmax in Athymic nu-nu mouse at 10 mg/kg, po measured upto 24 hrs by LC-MS/MS analysis; type: ADME, organism-based; settings: in vivo
[13] = system: MDA-MB-231; test: Antiproliferative activity against human MDA-MB-231 cells assessed as inhibition of cell growth incubated for 72 hrs by celltiter-glo assay; type: functional, cell-based; settings: MDA-MB-231, 72 h
[14] = system: Toledo; test: Antiproliferative activity against human Toledo cells assessed as inhibition of cell growth incubated for 72 hrs by celltiter-glo assay; type: functional, cell-based
[15] = system: A2780; test: Induction of apoptosis in human A2780 cells assessed as upregulation of histone H3 dephosphorylation at 0.2 to 1 micromol/L incubated for 2 to 72 hrs by Western blot analysis; type: functional, cell-based; settings: dose 0.2-1 µmol/L, time 2-72 hrs
[16] = biological target: Tyrosine-protein kinase JAK3 (Homo sapiens, UniProt P52333); test: Inhibition of recombinant JAK3 (unknown origin)
[17] = system: SW480; test: Antiproliferative activity against human SW480 cells assessed as inhibition of cell growth incubated for 72 hrs by celltiter-glo assay; type: functional, cell-based; settings: SW480, 72 h
[18] = system: HCT-15; test: Antiproliferative activity against human HCT-15 cells assessed as inhibition of cell growth incubated for 72 hrs by celltiter-glo assay; type: functional, cell-based; settings: HCT-15, 72 h
[19] = system: KG-1; test: Antiproliferative activity against human KG-1 cells assessed as inhibition of cell growth incubated for 72 hrs by celltiter-glo assay; type: functional, cell-based; settings: KG-1, 72 h
[20] = system: BJ; test: Antiproliferative activity against human BJ cells assessed as inhibition of cell growth incubated for 72 hrs by celltiter-glo assay; type: functional, cell-based
[21] = system: UACC-62; test: Antiproliferative activity against human UACC-62 cells assessed as inhibition of cell growth incubated for 72 hrs by celltiter-glo assay; type: functional, cell-based; settings: UACC-62, 72 h
[22] = system: LS180; test: Antiproliferative activity against human LS180 cells assessed as inhibition of cell growth incubated for 72 hrs by celltiter-glo assay; type: functional, cell-based; settings: LS180, 72 h
[23] = system: LoVo; test: Antiproliferative activity against human LoVo cells assessed as inhibition of cell growth incubated for 72 hrs by celltiter-glo assay; type: functional, cell-based
[24] = biological target: Serine/threonine-protein kinase Chk1 (Homo sapiens, UniProt O14757); test: Inhibition of recombinant CHK1 (unknown origin)
Chain of Serine/threonine-protein kinase Chk1 (O14757 whole entry): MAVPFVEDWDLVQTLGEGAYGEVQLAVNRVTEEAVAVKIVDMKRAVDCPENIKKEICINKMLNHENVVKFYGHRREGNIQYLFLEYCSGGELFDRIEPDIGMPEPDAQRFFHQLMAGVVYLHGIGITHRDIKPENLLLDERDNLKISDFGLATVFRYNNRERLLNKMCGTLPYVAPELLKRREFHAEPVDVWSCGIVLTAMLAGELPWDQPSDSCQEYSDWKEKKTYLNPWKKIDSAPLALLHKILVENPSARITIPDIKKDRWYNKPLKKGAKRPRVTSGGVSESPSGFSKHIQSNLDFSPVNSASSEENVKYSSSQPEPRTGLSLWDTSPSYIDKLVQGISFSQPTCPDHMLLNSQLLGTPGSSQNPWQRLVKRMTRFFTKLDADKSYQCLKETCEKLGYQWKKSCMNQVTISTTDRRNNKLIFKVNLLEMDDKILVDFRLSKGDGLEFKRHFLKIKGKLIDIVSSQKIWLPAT

[25] = system: HCT-116; test: Induction of apoptosis in human HCT-116 cells at 1 micromol/L incubated for 24 to 72 hrs by FACS/PI staining based flow cytometric analysis; type: functional; settings: dose 1 µmol/L; time 24-72 hrs; at 1 µM
[26] = system: HCT-116; test: Antiproliferative activity against human HCT-116 cells assessed as inhibition of cell growth incubated for 72 hrs by celltiter-glo assay; type: functional, cell-based; settings: HCT-116, 72 h
[27] = system: Jurkat; test: Antiproliferative activity against human Jurkat cells assessed as inhibition of cell growth incubated for 72 hrs by celltiter-glo assay; type: functional, cell-based
[28] = biological target: Serine/threonine-protein kinase Nek6 (Homo sapiens, UniProt Q9HC98); test: Inhibition of recombinant NEK6 (unknown origin) preincubated for 60 mins
Chain of Serine/threonine-protein kinase Nek6 (Q9HC98 whole entry): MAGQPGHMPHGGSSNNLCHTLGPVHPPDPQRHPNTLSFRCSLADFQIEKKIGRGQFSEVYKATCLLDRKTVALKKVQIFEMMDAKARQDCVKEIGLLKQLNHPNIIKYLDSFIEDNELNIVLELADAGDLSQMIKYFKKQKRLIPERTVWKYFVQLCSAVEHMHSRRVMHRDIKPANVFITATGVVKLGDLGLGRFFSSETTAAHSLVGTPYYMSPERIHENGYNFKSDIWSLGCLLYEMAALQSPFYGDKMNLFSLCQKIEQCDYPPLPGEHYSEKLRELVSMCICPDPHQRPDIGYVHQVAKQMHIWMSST

[29] = system: HEL; test: Antiproliferative activity against human HEL cells assessed as inhibition of cell growth incubated for 72 hrs by celltiter-glo assay; type: functional, cell-based
[30] = system: HCT-116; test: Growth inhibition of human HCT-116 cells at 1 micromol/L incubated for 24 hrs; type: functional, cell-based; settings: dose 1.0 µmol/L
[31] = biological target: Vascular endothelial growth factor receptor 2 (Homo sapiens, UniProt P35968); test: Inhibition of recombinant VEGFR2 (unknown origin)
Chain of Vascular endothelial growth factor receptor 2 (P35968 whole entry): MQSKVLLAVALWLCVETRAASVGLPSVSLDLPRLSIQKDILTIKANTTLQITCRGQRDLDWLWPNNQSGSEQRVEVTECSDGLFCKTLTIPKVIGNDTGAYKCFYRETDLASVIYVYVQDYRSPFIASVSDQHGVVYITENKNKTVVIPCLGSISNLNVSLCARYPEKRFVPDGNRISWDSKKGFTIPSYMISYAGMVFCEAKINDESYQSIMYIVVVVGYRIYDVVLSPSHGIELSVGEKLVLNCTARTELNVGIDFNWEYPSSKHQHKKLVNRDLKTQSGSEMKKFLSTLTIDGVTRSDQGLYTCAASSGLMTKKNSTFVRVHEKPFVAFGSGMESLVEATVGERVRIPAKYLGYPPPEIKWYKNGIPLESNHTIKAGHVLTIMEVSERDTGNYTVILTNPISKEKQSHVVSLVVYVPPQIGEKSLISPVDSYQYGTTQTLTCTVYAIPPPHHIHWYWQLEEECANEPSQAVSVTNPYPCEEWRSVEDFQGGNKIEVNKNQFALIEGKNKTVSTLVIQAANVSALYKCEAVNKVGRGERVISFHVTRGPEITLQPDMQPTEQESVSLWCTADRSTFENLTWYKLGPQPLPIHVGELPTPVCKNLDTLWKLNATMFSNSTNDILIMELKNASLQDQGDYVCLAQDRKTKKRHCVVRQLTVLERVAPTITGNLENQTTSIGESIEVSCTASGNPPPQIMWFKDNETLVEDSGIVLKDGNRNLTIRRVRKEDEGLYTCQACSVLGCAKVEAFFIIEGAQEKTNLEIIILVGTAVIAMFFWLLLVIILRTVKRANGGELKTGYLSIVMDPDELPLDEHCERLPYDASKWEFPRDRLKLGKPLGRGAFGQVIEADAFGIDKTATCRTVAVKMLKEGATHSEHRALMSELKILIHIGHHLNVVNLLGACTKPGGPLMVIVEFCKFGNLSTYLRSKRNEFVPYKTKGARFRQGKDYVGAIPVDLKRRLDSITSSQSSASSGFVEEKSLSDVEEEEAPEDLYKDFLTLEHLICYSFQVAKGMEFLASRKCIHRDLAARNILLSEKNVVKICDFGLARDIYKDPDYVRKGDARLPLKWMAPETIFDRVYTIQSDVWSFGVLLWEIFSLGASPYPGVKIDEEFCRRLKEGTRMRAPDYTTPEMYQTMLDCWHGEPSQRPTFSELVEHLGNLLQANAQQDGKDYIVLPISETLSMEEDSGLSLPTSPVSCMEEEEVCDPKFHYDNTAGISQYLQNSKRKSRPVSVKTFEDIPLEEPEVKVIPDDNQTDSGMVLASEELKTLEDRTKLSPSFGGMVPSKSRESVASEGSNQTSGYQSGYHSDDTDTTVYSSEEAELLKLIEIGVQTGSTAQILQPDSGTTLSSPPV

[32] = system: BXPC-3; test: Antiproliferative activity against human BXPC-3 cells assessed as inhibition of cell growth incubated for 72 hrs by celltiter-glo assay; type: functional, cell-based; settings: BXPC-3, 72 h
[33] = biological target: High affinity nerve growth factor receptor (Homo sapiens, UniProt P04629); test: Inhibition of recombinant TRKA (unknown origin)
Chain of High affinity nerve growth factor receptor (P04629 whole entry): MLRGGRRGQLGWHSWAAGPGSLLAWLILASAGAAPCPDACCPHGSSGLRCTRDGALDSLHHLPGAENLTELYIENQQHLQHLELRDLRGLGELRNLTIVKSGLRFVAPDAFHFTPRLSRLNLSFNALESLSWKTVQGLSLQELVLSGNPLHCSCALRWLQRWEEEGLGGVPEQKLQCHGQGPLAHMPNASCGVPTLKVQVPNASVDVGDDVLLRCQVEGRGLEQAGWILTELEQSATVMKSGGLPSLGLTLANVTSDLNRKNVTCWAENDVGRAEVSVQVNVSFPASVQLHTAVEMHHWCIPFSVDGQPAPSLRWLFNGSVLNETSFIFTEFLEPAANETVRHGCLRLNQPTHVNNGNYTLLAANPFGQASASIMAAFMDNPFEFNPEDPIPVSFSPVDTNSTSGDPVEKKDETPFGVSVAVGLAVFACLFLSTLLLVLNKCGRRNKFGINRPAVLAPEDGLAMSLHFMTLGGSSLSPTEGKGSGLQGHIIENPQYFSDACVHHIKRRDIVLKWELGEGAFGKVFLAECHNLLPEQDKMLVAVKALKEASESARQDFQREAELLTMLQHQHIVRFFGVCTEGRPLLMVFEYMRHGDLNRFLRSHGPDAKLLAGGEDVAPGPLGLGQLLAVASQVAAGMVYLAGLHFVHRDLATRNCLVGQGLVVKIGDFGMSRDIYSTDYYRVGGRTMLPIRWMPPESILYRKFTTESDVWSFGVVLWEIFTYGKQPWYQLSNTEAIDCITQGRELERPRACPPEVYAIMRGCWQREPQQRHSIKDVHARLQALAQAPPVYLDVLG

[34] = Inhibition of recombinant AUR1 (unknown origin); parameters: species or system Homo sapiens
[35] = biological target: Protein kinase C beta type (Homo sapiens, UniProt P05771); test: Inhibition of recombinant PKCbeta (unknown origin)
[36] = system: NCI-H82; test: Antiproliferative activity against human NCI-H82 cells assessed as inhibition of cell growth incubated for 72 hrs by celltiter-glo assay; type: functional, cell-based; settings: NCI-H82, 72 h
[37] = system: HOP-92; test: Antiproliferative activity against human HOP-92 cells assessed as inhibition of cell growth incubated for 72 hrs by celltiter-glo assay; type: functional, cell-based; settings: HOP-92, 72 h
[38] = system: COLO 320; test: Antiproliferative activity against human COLO 320 cells assessed as inhibition of cell growth incubated for 72 hrs by celltiter-glo assay; type: functional, cell-based; settings: COLO 320, 72 h
[39] = system: HT-29; test: Antiproliferative activity against human HT-29 cells assessed as inhibition of cell growth incubated for 72 hrs by celltiter-glo assay; type: functional, cell-based; settings: HT-29, 72 h
[40] = system: NCI-H460; test: Antiproliferative activity against human NCI-H460 cells assessed as inhibition of cell growth incubated for 72 hrs by celltiter-glo assay; type: functional, cell-based; settings: NCI-H460, 72 h
[41] = biological target: Non-receptor tyrosine-protein kinase TYK2 (Homo sapiens, UniProt P29597); test: Inhibition of recombinant TYK 2 (unknown origin)
Chain of Non-receptor tyrosine-protein kinase TYK2 (P29597 whole entry): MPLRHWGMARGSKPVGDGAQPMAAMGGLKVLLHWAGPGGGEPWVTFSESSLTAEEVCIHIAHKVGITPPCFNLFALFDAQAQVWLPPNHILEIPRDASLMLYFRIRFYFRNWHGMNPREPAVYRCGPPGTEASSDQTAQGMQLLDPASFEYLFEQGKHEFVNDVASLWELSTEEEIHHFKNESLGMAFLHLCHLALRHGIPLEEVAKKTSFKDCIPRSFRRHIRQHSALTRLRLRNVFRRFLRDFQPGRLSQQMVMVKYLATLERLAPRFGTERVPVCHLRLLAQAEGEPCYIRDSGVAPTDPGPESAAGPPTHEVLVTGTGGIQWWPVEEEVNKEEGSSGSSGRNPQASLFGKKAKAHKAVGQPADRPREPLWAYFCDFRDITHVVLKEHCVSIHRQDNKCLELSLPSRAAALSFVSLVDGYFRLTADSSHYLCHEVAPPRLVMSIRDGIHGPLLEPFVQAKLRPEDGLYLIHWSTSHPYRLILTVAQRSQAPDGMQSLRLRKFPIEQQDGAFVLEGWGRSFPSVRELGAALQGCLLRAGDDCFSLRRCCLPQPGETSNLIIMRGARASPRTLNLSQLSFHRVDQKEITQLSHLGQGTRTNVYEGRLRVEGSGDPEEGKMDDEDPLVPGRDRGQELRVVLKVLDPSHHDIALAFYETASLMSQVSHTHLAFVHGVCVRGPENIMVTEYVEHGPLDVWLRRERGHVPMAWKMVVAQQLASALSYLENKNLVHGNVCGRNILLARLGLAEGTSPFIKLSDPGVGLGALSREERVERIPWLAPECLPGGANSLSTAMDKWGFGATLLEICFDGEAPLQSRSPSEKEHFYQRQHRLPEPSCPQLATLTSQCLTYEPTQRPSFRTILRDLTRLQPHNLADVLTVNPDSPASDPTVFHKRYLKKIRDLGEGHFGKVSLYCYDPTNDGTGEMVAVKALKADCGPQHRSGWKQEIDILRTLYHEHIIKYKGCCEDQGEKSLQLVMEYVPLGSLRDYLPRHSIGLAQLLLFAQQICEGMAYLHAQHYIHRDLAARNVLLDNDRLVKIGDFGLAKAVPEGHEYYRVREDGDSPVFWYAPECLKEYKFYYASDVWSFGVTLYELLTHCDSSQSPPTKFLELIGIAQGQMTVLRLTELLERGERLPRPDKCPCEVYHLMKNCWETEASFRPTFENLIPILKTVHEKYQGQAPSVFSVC

[42] = biological target: Mitogen-activated protein kinase 1 (Homo sapiens, UniProt P28482); test: Inhibition of recombinant ERK2 (unknown origin)
Chain of Mitogen-activated protein kinase 1 (P28482 whole entry): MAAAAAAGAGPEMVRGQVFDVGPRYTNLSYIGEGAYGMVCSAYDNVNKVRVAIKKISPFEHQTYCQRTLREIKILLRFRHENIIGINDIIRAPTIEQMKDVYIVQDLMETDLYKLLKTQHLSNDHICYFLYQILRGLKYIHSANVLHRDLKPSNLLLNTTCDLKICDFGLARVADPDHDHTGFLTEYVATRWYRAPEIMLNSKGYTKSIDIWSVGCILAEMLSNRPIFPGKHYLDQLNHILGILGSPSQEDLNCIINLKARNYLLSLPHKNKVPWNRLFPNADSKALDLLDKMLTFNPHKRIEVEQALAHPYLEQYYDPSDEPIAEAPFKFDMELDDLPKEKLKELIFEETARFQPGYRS

[43] = system: COLO-678; test: Antiproliferative activity against human COLO-678 cells assessed as inhibition of cell growth incubated for 72 hrs by celltiter-glo assay; type: functional, cell-based; settings: COLO-678, 72 h

Chain of Glycogen synthase kinase-3 beta (P49841 whole entry): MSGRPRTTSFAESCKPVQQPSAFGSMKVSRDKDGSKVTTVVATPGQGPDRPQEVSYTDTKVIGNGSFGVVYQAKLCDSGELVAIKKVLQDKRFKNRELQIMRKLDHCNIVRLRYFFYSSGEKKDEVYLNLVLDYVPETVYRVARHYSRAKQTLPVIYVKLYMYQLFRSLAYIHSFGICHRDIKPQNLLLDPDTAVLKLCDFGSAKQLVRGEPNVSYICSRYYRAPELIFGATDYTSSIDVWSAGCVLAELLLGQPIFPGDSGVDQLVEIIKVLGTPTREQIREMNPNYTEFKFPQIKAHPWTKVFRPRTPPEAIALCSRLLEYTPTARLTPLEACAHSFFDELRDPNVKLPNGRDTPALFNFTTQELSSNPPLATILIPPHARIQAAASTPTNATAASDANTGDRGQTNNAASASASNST

pIC50 [1]: < 5.00
pIC50 [2]: 5.59
pIC50 [3]: 6.33
AUC at 24 h [5]: 50.7 µM·h
pIC50 [6]: 5.33
pIC50 [7]: < 5.00
pIC50 [8]: < 5.00
pIC50 [9]: 5.45
Cmax [12]: 0.6 µM
pIC50 [13]: 6.05
pIC50 [16]: < 5.00
pIC50 [17]: 5.89
pIC50 [18]: 6.63
pIC50 [23]: 5.73
pIC50 [24]: < 5.00
pIC50 [26]: 5.69
pIC50 [27]: 5.44
pIC50 [28]: > 5.00
pIC50 [31]: < 5.00
pIC50 [32]: 5.66
pIC50 [33]: < 5.00
pIC50 [34]: < 5.00
pIC50 [35]: < 5.00
pIC50 [36]: 5.59
pIC50 [38]: 5.89
pIC50 [39]: 5.41
pIC50 [40]: 5.66
pIC50 [41]: < 5.00
pIC50 [42]: < 5.00
pIC50 [43]: 5.00
Compound: CCc1cccc(CC)c1NC(=O)c1nn(C)c2c1CCc1cnc(Nc3ccc(C(=O)NC4CCN(C)CC4)cc3OC(F)(F)F)nc1-2
pIC50 [4]: 5.86
pIC50 [10]: 5.54
pIC50 [11]: 5.03
pIC50 [14]: 5.76
Activity [15]: Active
pIC50 [19]: 5.53
pIC50 [20]: 5.26
pIC50 [21]: 5.32
pIC50 [22]: 5.66
Activity [25]: 100%
pIC50 [29]: 5.26
growth inhibition (GI) [30]: Active
pIC50 [37]: 5.66
